From the NIST ThermoML archive (doi:10.1016/j.fluid.2016.08.002)
Numbers after ± are expanded uncertainties.

Assay: xn = mol fraction of the nth substance listed
Conditions: Gas, Vibrating tube method

S [hydrogen sulfide] + C
Conditions | mass density [kg/m3]
273.16 K, 19608 kPa, x2 = 0.714 | 336.94 ± 2.4
273.16 K, 22152 kPa, x2 = 0.714 | 354.18 ± 1.7
273.16 K, 22483 kPa, x2 = 0.714 | 356.27 ± 1.6
273.17 K, 12519 kPa, x2 = 0.8197 | 177.81 ± 1.8
273.18 K, 22828 kPa, x2 = 0.714 | 358.14 ± 1.6
273.19 K, 21199 kPa, x2 = 0.714 | 347.78 ± 1.9
273.19 K, 24981 kPa, x2 = 0.714 | 368.95 ± 1.6
273.2 K, 20623 kPa, x2 = 0.714 | 344.02 ± 2
273.2 K, 23590 kPa, x2 = 0.714 | 362.19 ± 1.6
273.21 K, 209 kPa, x2 = 0.8685 | 1.7 ± 0.34
273.21 K, 648 kPa, x2 = 0.8685 | 5.39 ± 0.44
273.21 K, 21506 kPa, x2 = 0.714 | 349.84 ± 1.8
273.22 K, 26410 kPa, x2 = 0.714 | 375.25 ± 1.5
273.23 K, 20100 kPa, x2 = 0.714 | 340.42 ± 2.2
273.23 K, 25533 kPa, x2 = 0.714 | 371.48 ± 1.5
273.24 K, 1167 kPa, x2 = 0.8685 | 10 ± 0.52
273.24 K, 1761 kPa, x2 = 0.8685 | 15.44 ± 0.6
273.24 K, 27020 kPa, x2 = 0.714 | 377.85 ± 1.5
273.25 K, 2240 kPa, x2 = 0.8685 | 19.97 ± 0.68
273.25 K, 3776 kPa, x2 = 0.8685 | 35.41 ± 0.84
273.25 K, 11361 kPa, x2 = 0.8685 | 140.37 ± 1.4
273.25 K, 24591 kPa, x2 = 0.714 | 367.01 ± 1.6
273.25 K, 26031 kPa, x2 = 0.714 | 373.67 ± 1.5
273.25 K, 30481 kPa, x2 = 0.8685 | 300.13 ± 0.91
273.26 K, 2770 kPa, x2 = 0.8685 | 25.12 ± 0.74
273.26 K, 4666 kPa, x2 = 0.8685 | 45.13 ± 0.9
273.26 K, 5086 kPa, x2 = 0.8685 | 49.93 ± 0.95
273.26 K, 11062 kPa, x2 = 0.8685 | 135.65 ± 1.4
273.26 K, 11726 kPa, x2 = 0.8685 | 146.08 ± 1.4
273.26 K, 12002 kPa, x2 = 0.8685 | 150.33 ± 1.5
273.26 K, 12322 kPa, x2 = 0.8685 | 155.19 ± 1.5
273.26 K, 12637 kPa, x2 = 0.8685 | 159.86 ± 1.6
273.26 K, 13040 kPa, x2 = 0.8685 | 165.72 ± 1.6
273.26 K, 27255 kPa, x2 = 0.8685 | 285.03 ± 0.94
273.26 K, 28276 kPa, x2 = 0.8685 | 290.05 ± 0.94
273.26 K, 29372 kPa, x2 = 0.8685 | 295.19 ± 0.92
273.27 K, 3280 kPa, x2 = 0.8685 | 30.25 ± 0.8
273.27 K, 4207 kPa, x2 = 0.8685 | 40.03 ± 0.88
273.27 K, 4225 kPa, x2 = 0.8685 | 40.23 ± 0.88
273.27 K, 9149 kPa, x2 = 0.8685 | 105.29 ± 1.2
273.27 K, 9851 kPa, x2 = 0.8685 | 116.33 ± 1.2
273.27 K, 13466 kPa, x2 = 0.8685 | 171.7 ± 1.7
273.27 K, 13771 kPa, x2 = 0.8685 | 175.85 ± 1.7
273.27 K, 24569 kPa, x2 = 0.8685 | 270.52 ± 1
273.27 K, 25361 kPa, x2 = 0.8685 | 275.02 ± 0.99
273.27 K, 26319 kPa, x2 = 0.8685 | 280.21 ± 0.96
273.28 K, 5512 kPa, x2 = 0.8685 | 54.98 ± 0.97
273.28 K, 5933 kPa, x2 = 0.8685 | 60.12 ± 0.98
273.28 K, 8496 kPa, x2 = 0.8685 | 95.31 ± 1.1
273.28 K, 9596 kPa, x2 = 0.8685 | 112.28 ± 1.2
273.28 K, 10137 kPa, x2 = 0.8685 | 120.88 ± 1.3
273.29 K, 8136 kPa, x2 = 0.8685 | 89.96 ± 1.1
273.29 K, 8809 kPa, x2 = 0.8685 | 100.05 ± 1.2
273.29 K, 10446 kPa, x2 = 0.8685 | 125.82 ± 1.3
273.29 K, 10749 kPa, x2 = 0.8685 | 130.66 ± 1.3
273.29 K, 23690 kPa, x2 = 0.8685 | 265.29 ± 1
273.3 K, 6333 kPa, x2 = 0.8685 | 65.17 ± 1
273.3 K, 14847 kPa, x2 = 0.8685 | 189.62 ± 1.9
273.31 K, 6712 kPa, x2 = 0.8685 | 70.1 ± 1
273.31 K, 7200 kPa, x2 = 0.8685 | 76.68 ± 1.1
273.31 K, 7483 kPa, x2 = 0.8685 | 80.6 ± 1.1
273.31 K, 7817 kPa, x2 = 0.8685 | 85.33 ± 1.1
273.31 K, 15329 kPa, x2 = 0.8685 | 195.37 ± 1.9
273.31 K, 22905 kPa, x2 = 0.8685 | 260.37 ± 1.1
273.32 K, 15811 kPa, x2 = 0.8685 | 200.85 ± 2
